According to publication PMC9023544, “Ketone-selenoesters as potential anticancer and multidrug resistance modulation agents in 2D and 3D ovarian and breast cancer in vitro models” (Scientific Reports, 2022):

Assays:
[1] = tested on: HOC (human parental ovarian adenocarcinoma, A2780); test: Cytotoxic activity, 2D, resazurin, 72 h; format: cell-based; conditions: for IC50: Homo sapiens, A2780, 72 h, read-out: HOC IC50; for SI HEK293/HOC: IC50 HEK293 / IC50 HOC
Method: The cytotoxic potential of selenoesters was tested on several cancer cell lines—HOC (human parental ovarian adenocarcinoma, HOC, A2780, Sigma-Aldrich), HOC/ADR (sub-line resistant to Adriamycin, A2780/ADR, Sigma-Aldrich), MCF-7 (human breast adenocarcinoma, ATCC®, HTB-22TM), MCF-7/PAX (resistant sub-line established by gradual adaptation of parental cells to increased concentration of paclitaxel; kindly provided by Division of Cell and Molecular Biology, Third Faculty of Medicine, Charles University, Czech Republic) and on one non-cancerous cell line—HEK293 (human embryonic kidney cell line, Leibniz Institute, DSMZ-German Collection of Microorganisms and Cell Cultures GmbH). All mentioned cell lines were authenticated using short tandem repeat (STR) profiling. Cell lines were cultivated in DMEM medium (10% FBS, 1× antibiotic antimycotic solution), except for HEK293 cell line which was cultivated without antibiotics. In case of the resistant cell lines, the medium was supplemented with a required concentration of cytostatics to maintain resistance (HOC/ADR—100 nM Adriamycin; MCF-7/PAX—300 nM paclitaxel). All cells were cultivated in a CO2 incubator (5% CO2, 37 °C, Thermo Fisher Scientific).
For the experiment, the cells at passage number 5–20 were seeded at a 1 × 10^5 cells/mL concentration into 96-well plates to 100 µL final volume. The final concentration range of the compounds was 0.63–20 µM. After an incubation of 72 h, the plates were washed 1× with PBS and resazurin solution (0.03 mg/mL in 1× PBS) was added. After 1 h of incubation, the fluorescence signal was recorded (ex./em. 560/590 nm).
The selectivity index (SI) was determined as the ratio of IC50 value for the non-cancerous cells to IC50 for the cancer cell line. For resistant cell lines, the collateral sensitivity (CS) was calculated as the ratio of IC50 value in sensitive tumour cells to IC50 in the resistant cancer cell line. In both cases, the selectivity is considered as: (1) strongly selective when SI or CS value is above 6, (2) moderately selective when SI or CS is between 3 and 6, (3) slightly selective when SI or CS is between 1 and 3 and (4) non-selective when SI or CS is less than 1[23].

[2] = tested on: ABC superfamily genes in HOC/ADR; test: Expression of genes encoding ABC transporters, qPCR; format: cell-based, human; conditions: IC10 alone, 48 h
Method: Based on the fact that compounds K3, K4, K7 sensitized drug-resistant cell lines (HOC/ADR, MCF-7/PAX) and modulated ATPase activity of one from the ABC proteins (P-gp), we verified the potential of these compounds to affect ABC superfamily gene expression. The ovarian and breast cancer cell lines (parental cells and resistant sub-line) were analysed for the expression profile of genes encoding the ABC proteins in the previous works[18]–[20]. […] After 48 h, the effect of compounds alone or in the combination with cytostatics was observed (Supplementary Tables 1, Table 2).
To determine the impact of selected compounds on the expression of genes encoding ABC transporter, HOC/ADR and MCF-7/PAX cells were seeded for 24 h into 5 cm Petri dishes with DMEM medium at the cell density 1 × 10^5 cells/mL. Afterwards, the cells were washed 1× with PBS and new fresh DMEM supplemented with K3, K4, and K7 (in concentration corresponding to their IC10 value) alone or combined with cytostatics (Adriamycin or paclitaxel in concentration corresponding to their IC25 value) was added. In the experiment, positive and negative control was also included (positive—untreated cells, negative—cells treated only with cytostatics). After 48 h exposure, the cells were washed once with PBS and released from the surface by using the above-mentioned trypsin–EDTA procedure. The enzyme reaction was stopped by medium addition and the cells were centrifuged (3200×g; 10 min, 4 °C). The supernatants were removed and before the next centrifugation, the pellets were resuspended in 1.5 mL of cooled PBS (5400×g; 10 min, 4 °C). After the second washing step, the cells were centrifuged another time (10,000×g; 3 min, 4 °C). Subsequently, 1 mL of Trizol (Invitrogen) was added to the pellets and the compounds were stored − 80 °C.
The RNA concentration of selenoester treated samples was determined using QuantiT RiboGreen RNA Assay Kit and Infinite M200 plate reader (Tecan, Männedor, Switzerland). The cDNA was synthesized from 0.5 µg of total RNA by RevertAid First Strand Synthesis cDNA Kit (MBI Fermentas, Vilnius, Lithuania). To determine the quality of cDNA, the ubiquitin C gene fragment was amplified. The experiment was performed in 384-well block by using ViiA7 Real-Time PCR System (Life Technologies, Camarillo, California, United States). A master mix contained 0.25 µL of 20× TaqMan Gene Expression Assay, 1 µL of 5× HotFIREPol Probe qPCR Mix Plus, 1.75 µL of RNase free water and 2 µL of 8× diluted cDNA. The final reaction volume was 5 µL. The PCR parameters were as follows: initial hold (50 °C for 2 min), denaturation (95 °C for 10 min), followed by 45 cycles (denaturation at 95 °C for 15 s, annealing at 60 °C for 1 min). After each cycle, the fluorescent signal was determined. For each compound, duplicates were analysed and those with a standard deviation higher than 0.5 Ct were re-analysed. A quantitate real-time PCR was followed by MIQE guidelines. To compare the relative transcript levels of genes, the software REST 2009 (Qiagen, Hilden, Germany) was used.
Table 1. Effect of selenoesters on the expression of genes of the ABC superfamily in Adriamycin-resistant ovarian carcinoma cell line (HOC/ADR).
Gene expression of ABC transporters were estimated using comercial predesigned Taqman Gene Expression Assays (Life technologies). TaqMan Gene Expression Assays are based on 5´ nuclease chemistry, and each assay contains the primer and probe set for target of interest. Taqman assays IDs and GenBank Accession numbers of reference sequencies identifying their location and amplicon lengths are included in […]. * Relative transcript levels (P-value ) in treated and non-treated cancer cell lines were compared using REST 2009 software.

## CC(=O)C[Se]C(=O)c1ccc(Br)cc1 [K3]
[1]
  IC50: 1800 nM
  SI HEK293/HOC: 1.3 ± 0.0
[2]
  ABCA1 Expression Difference: 0.968
  ABCA2 Expression Difference: 0.997
  ABCA3 Expression Difference: 0.838
  ABCA3 Treated vs. Untr.: DOWN
  ABCA5 Expression Difference: 2.693
  ABCA7 Expression Difference: 0.322
  ABCA7 Treated vs. Untr.: DOWN
  ABCB1 Expression Difference: 3.825
  ABCB2 Expression Difference: 0.315
  ABCB2 Treated vs. Untr.: DOWN
  ABCB3 Expression Difference: 4.904
  ABCB6 Expression Difference: 4.860
  ABCB8 Expression Difference: 2.659
  ABCB9 Expression Difference: 4.156
  ABCB10 Expression Difference: 7.275
  ABCC1 Expression Difference: 6.415
  ABCC2 Expression Difference: 2.907
  ABCC5 Expression Difference: 2.301
  ABCC10 Expression Difference: 1.562
  ABCD1 Expression Difference: 0.665
  ABCD1 Treated vs. Untr.: DOWN
  ABCD2 Expression Difference: 1.845
  ABCD3 Expression Difference: 2.960
  ABCD4 Expression Difference: 2.760
  ABCE1 Expression Difference: 7.298
  ABCF1 Expression Difference: 1.638
  ABCF2 Expression Difference: 2.868
  ABCF3 Expression Difference: 2.163
  ABCG1 Expression Difference: 0.932
  ABCG2 Expression Difference: 1.869
  ABCG4 Expression Difference: 0.755
  ABCG4 Treated vs. Untr.: DOWN

## CC(=O)C[Se]C(=O)c1ccccc1C(F)(F)F [K4]
[1]
  IC50: 2200 ± 100 nM
  SI HEK293/HOC: 2.5 ± 0.2
[2]
  ABCA1 Expression Difference: 1.347
  ABCA2 Expression Difference: 0.948
  ABCA3 Expression Difference: 0.832
  ABCA3 Treated vs. Untr.: DOWN
  ABCA5 Expression Difference: 2.334
  ABCA7 Expression Difference: 0.359
  ABCA7 Treated vs. Untr.: DOWN
  ABCB1 Expression Difference: 3.696
  ABCB2 Expression Difference: 0.435
  ABCB2 Treated vs. Untr.: DOWN
  ABCB3 Expression Difference: 4.568
  ABCB6 Expression Difference: 5.132
  ABCB7 Expression Difference: 7.250
  ABCB8 Expression Difference: 3.526
  ABCB9 Expression Difference: 4.981
  ABCB10 Expression Difference: 8.165
  ABCC1 Expression Difference: 8.545
  ABCC2 Expression Difference: 3.272
  ABCC5 Expression Difference: 2.336
  ABCC10 Expression Difference: 1.545
  ABCD1 Expression Difference: 0.796
  ABCD1 Treated vs. Untr.: DOWN
  ABCD2 Expression Difference: 4.885
  ABCD3 Expression Difference: 3.302
  ABCD4 Expression Difference: 2.681
  ABCE1 Expression Difference: 6.945
  ABCF1 Expression Difference: 1.998
  ABCF2 Expression Difference: 3.096
  ABCF3 Expression Difference: 2.262
  ABCG1 Expression Difference: 1.213
  ABCG2 Expression Difference: 1.302
  ABCG4 Expression Difference: 0.776
  ABCG4 Treated vs. Untr.: DOWN

## CC(=O)C[Se]C(=O)c1ccc(C(C)(C)C)cc1 [K7]
[1]
  IC50: 1100 ± 100 nM
  SI HEK293/HOC: 1.7 ± 0.2
[2]
  ABCA1 Expression Difference: 1.104
  ABCA2 Expression Difference: 1.775
  ABCA3 Expression Difference: 1.018
  ABCA5 Expression Difference: 1.970
  ABCA7 Expression Difference: 0.341
  ABCA7 Treated vs. Untr.: DOWN
  ABCB1 Expression Difference: 5.009
  ABCB2 Expression Difference: 0.591
  ABCB2 Treated vs. Untr.: DOWN
  ABCB3 Expression Difference: 3.406
  ABCB6 Expression Difference: 4.646
  ABCB7 Expression Difference: 7.145
  ABCB8 Expression Difference: 3.581
  ABCB9 Expression Difference: 4.530
  ABCB10 Expression Difference: 7.288
  ABCC1 Expression Difference: 7.835
  ABCC2 Expression Difference: 3.865
  ABCC5 Expression Difference: 3.327
  ABCC10 Expression Difference: 1.899
  ABCD1 Expression Difference: 0.898
  ABCD1 Treated vs. Untr.: DOWN
  ABCD2 Expression Difference: 0.638
  ABCD2 Treated vs. Untr.: DOWN
  ABCD3 Expression Difference: 4.007
  ABCD4 Expression Difference: 3.541
  ABCE1 Expression Difference: 10.154
  ABCF1 Expression Difference: 2.212
  ABCF2 Expression Difference: 4.029
  ABCF3 Expression Difference: 3.001
  ABCG1 Expression Difference: 1.059
  ABCG2 Expression Difference: 1.468
  ABCG4 Expression Difference: 1.431
